Test results as given in ChEMBL document CHEMBL1201862, “PubChem BioAssay data set” (2004).
The source made the active and inactive calls.

How the values were obtained:
[1] = target: Peroxisome proliferator-activated receptor gamma/Nuclear receptor coactivator 2 (Homo sapiens, UniProt P37231); experiment: (§1) TR-FRET dose response biochemical High Throughput Screening assay for agonists of the steroid receptor coactivator 2 (SRC-2) recruitment by the peroxisome proliferator-activated receptor gamma (PPAR gamma): non-selective agonists. [Related pubchem assays: 1297, 1032 ]; format: functional
Peroxisome proliferator-activated receptor gamma/Nuclear receptor coactivator 2, sequence (P37231 whole entry): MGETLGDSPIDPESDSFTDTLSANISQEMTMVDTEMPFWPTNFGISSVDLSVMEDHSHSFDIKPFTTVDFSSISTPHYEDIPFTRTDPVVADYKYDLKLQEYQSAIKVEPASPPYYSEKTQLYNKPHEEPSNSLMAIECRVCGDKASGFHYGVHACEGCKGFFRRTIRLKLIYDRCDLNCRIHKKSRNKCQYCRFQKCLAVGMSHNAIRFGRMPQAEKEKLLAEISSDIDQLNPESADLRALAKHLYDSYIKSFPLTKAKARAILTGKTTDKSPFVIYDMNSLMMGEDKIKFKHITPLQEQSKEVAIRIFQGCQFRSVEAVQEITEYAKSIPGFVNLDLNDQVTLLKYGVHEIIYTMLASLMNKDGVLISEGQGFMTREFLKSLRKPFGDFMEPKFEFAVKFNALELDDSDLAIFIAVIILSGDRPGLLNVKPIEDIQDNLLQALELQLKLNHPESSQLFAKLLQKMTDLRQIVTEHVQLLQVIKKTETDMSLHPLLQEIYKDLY
Peroxisome proliferator-activated receptor gamma/Nuclear receptor coactivator 2, sequence (Q15596 whole entry, further chain): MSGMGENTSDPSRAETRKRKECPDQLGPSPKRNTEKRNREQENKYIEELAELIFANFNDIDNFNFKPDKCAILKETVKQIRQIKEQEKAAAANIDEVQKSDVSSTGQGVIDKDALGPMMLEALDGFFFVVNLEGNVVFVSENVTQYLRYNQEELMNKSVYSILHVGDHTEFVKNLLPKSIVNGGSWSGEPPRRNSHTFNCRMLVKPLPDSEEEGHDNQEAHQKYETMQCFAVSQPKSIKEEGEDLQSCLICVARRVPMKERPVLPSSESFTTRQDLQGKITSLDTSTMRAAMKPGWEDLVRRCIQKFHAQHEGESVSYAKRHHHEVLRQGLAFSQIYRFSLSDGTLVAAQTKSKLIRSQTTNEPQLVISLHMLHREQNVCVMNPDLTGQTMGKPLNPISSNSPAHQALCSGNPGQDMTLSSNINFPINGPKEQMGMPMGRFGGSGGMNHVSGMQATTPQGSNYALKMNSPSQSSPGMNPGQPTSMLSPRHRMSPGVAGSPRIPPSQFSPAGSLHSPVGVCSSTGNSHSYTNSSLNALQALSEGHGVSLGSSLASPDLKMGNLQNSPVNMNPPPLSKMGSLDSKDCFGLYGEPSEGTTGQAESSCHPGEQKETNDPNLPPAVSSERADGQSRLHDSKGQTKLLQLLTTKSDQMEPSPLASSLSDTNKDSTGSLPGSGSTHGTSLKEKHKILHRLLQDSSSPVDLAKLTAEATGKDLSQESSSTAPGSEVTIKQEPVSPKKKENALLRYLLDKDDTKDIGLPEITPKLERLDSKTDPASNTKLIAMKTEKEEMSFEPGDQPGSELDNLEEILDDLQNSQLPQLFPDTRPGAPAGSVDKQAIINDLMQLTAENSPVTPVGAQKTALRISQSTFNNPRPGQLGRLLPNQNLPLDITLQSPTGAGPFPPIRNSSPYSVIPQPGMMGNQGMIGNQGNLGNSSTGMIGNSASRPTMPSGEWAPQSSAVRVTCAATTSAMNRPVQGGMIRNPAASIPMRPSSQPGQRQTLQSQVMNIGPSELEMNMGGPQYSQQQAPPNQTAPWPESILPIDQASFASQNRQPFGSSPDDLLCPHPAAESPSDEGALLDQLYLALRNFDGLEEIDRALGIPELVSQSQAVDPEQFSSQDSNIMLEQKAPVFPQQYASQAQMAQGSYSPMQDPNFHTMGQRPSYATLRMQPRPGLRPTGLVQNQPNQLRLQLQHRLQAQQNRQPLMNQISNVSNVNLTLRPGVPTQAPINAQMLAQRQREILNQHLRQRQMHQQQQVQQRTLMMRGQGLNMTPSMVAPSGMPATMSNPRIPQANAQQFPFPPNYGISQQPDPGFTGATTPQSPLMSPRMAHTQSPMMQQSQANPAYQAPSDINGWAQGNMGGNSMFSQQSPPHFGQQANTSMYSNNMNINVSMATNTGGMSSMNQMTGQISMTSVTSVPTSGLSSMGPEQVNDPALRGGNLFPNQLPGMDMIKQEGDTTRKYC

[2] = target: Peroxisome proliferator-activated receptor gamma/Nuclear receptor coactivator 3 (Homo sapiens, UniProt P37231); experiment: as §1, with “3 (SRC-3)” for “2 (SRC-2)”, “1301 (Confirmation screen.), 1048 (Primary screen.)]” for “1297, 1032 ]”; format: functional
[3] = target: Peroxisome proliferator-activated receptor gamma/Nuclear receptor coactivator 1 (Homo sapiens, UniProt P37231); experiment: as §1, with “1 (SRC-1)” for “2 (SRC-2)”, “assays (depositor defined):AID1300, AID1808, AID504735, AID631]” for “assays: 1297, 1032 ]”; format: protein assay
Phospholipase A2 = Phospholipase A2 (Homo sapiens, UniProt P04054); format: functional;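 note: confirmatory dose-response counterscreen on phospholipase A2, testing hits that came from an ultra-high-throughput screen for ATG4B inhibitors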
Phospholipase A2, sequence (P04054 whole entry): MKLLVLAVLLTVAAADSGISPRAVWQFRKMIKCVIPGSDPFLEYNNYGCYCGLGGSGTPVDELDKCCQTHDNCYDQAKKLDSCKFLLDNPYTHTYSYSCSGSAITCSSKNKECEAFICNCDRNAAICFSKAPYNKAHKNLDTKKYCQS

Cysteine protease ATG4B = Cysteine protease ATG4B (Homo sapiens, UniProt Q9Y4P1); format: functional;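 note: Fluorescence-based dose-response confirmation assay measuring inhibition of ATG4B activity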
Cysteine protease ATG4B, sequence (Q9Y4P1 whole entry): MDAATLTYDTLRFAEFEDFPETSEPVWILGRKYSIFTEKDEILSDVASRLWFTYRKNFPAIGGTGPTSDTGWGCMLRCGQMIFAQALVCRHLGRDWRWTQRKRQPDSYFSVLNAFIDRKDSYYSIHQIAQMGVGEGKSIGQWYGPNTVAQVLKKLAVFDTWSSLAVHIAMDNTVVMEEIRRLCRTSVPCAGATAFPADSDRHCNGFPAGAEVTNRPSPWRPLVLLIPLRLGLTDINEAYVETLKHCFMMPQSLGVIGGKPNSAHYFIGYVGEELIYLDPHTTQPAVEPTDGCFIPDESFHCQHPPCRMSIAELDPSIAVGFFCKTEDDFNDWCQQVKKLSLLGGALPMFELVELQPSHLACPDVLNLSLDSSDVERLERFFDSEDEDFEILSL

[4] = target: T1, Delta-type opioid receptor (Homo sapiens, UniProt P41143); experiment: DOR agonists, SAR follow-up, image-based (AID 2370); format: functional
T1 sequence (P41143 whole entry): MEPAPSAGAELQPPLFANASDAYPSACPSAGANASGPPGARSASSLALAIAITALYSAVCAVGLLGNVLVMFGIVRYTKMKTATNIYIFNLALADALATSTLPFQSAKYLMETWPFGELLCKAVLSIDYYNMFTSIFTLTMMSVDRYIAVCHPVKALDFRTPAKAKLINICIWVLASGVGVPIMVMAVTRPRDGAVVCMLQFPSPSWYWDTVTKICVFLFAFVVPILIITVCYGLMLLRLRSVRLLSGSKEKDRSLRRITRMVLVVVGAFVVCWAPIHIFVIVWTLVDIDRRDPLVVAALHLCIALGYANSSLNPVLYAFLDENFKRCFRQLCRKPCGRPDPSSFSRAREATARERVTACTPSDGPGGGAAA

[5] = target: T2, Kappa-type opioid receptor (Homo sapiens, UniProt P41145); experiment: SAR analysis of small molecule agonists of the kappa opioid receptor via a luminescent beta-arrestin assay. [Related pubchem assays (depositor defined):AID1777, AID1786, AID1966, AID2133, AID2136, AID2348, AID2352, AID2357, AID2359, AID2370, AID2420, AID2478, AID2491, AID2492, AID2493, AID2497, AID2498, AID2500, AID449737, AID488822, AID488842]; format: functional
T2 sequence (P41145 whole entry): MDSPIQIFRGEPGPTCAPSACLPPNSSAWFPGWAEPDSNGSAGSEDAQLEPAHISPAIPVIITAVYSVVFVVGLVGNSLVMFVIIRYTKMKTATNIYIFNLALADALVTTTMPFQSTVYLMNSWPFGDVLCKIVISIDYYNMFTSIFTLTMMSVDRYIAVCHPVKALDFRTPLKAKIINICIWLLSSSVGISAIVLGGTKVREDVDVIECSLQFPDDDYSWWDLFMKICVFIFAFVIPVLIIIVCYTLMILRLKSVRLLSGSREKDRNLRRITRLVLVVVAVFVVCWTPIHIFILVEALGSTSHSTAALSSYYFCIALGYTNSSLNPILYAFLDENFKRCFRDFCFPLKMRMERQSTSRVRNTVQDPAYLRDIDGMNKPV

[6] = target: T2, Kappa-type opioid receptor; experiment: kappa opioid receptor blockers, image-based, SAR follow-up (AID 2348); format: functional
[7] = target: T2, Kappa-type opioid receptor; experiment: kappa opioid receptor activation potency – imaging, image-based, SAR follow-up (AID 2359); format: functional
Mu-type opioid receptor [8] = target: T3, Mu-type opioid receptor (Homo sapiens, UniProt P35372); experiment: mu opioid receptor blockers – image-based, SAR follow-up (AID 2420); format: functional;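 note: compounds added before stimulation of receptor with agonist DAMGO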
T3 sequence (P35372 whole entry): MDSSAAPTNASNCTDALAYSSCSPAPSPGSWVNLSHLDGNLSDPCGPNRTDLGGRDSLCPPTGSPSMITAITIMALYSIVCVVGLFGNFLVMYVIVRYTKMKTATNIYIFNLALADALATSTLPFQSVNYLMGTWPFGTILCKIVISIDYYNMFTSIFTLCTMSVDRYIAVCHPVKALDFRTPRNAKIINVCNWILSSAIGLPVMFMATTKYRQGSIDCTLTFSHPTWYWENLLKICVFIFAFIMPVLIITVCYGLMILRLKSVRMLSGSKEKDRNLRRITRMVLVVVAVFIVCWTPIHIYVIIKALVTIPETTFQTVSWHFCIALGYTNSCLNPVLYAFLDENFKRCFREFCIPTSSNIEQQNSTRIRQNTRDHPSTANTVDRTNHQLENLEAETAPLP

[9] = target: T1, Delta-type opioid receptor; experiment: delta opioid receptor blockers – image-based, SAR follow-up (AID 2357); format: functional
Mu-type opioid receptor [10] = target: T3, Mu-type opioid receptor; experiment: mu opioid receptor activators, image-based, SAR follow-up (AID 2352); format: functional
[11] = target: Alkaline phosphatase, placental type (Homo sapiens, UniProt P05187); experiment: human placental alkaline phosphatase inhibition – biochemical, luminescence, confirmation (AID 1512); format: functional
[12] = target: Lysine-specific demethylase 4C (Homo sapiens, UniProt Q9H3R0); experiment: inhibition of JMJD2C H3K9me3 demethylation – biochemical, DELFIA europium, cherry-picked samples, dose response (AID 488835); format: functional
Lysine-specific demethylase 4C, sequence (Q9H3R0 whole entry): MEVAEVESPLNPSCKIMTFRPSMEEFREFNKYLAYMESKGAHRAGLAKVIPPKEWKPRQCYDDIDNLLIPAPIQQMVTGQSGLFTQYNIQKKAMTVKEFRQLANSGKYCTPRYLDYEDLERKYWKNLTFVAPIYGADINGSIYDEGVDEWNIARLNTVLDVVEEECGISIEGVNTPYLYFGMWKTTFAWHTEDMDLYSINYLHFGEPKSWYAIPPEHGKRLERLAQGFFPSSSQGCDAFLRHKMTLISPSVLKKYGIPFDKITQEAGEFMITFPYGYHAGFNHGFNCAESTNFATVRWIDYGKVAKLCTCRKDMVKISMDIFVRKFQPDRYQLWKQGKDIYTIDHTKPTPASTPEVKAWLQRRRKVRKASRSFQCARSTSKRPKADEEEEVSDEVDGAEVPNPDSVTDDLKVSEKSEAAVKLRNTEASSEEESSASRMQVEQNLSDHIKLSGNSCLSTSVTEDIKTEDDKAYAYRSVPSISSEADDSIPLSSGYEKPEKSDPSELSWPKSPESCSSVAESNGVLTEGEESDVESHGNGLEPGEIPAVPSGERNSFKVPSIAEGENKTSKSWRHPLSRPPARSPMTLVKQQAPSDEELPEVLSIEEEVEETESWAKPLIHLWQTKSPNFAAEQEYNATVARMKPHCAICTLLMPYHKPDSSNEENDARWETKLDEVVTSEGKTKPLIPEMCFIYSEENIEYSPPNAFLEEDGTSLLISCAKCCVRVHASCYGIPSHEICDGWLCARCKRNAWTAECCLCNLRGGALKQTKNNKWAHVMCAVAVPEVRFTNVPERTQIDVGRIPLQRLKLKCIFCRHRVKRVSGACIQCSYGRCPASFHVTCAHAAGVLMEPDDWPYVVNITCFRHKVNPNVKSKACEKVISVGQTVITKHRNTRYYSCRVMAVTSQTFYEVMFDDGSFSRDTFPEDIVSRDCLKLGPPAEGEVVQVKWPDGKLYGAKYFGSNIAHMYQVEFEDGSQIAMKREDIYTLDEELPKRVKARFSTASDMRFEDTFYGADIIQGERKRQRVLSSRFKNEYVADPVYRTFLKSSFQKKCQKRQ

[13] = viability of uninfected HEp-2 cells – cell-based, HTS, cytotoxicity control for RSV inhibitor project, dose response (AID 2410); format: functional; settings: human respiratory syncytial virus
Troponin, cardiac muscle = Troponin, cardiac muscle (Homo sapiens, UniProt P19429+P45379+P63316); experiment: Fluorescence-based biochemical high throughput dose response assay for activators of the calcium sensitivity of cardiac Regulated Thin Filaments (RTF). [Related pubchem assays (depositor defined):AID493008, AID493018, AID504382, AID504383]; format: protein-complex assay
[14] = target: T4, Endoribonuclease toxin MazF (Escherichia coli K-12, UniProt P0AE70); experiment: activation of MazEF endoribonuclease cleavage – biochemical, fluorescence, single-stranded RNA substrate, uHTS hits, dose response (AID 588481); format: functional
T4 sequence (P0AE70 whole entry): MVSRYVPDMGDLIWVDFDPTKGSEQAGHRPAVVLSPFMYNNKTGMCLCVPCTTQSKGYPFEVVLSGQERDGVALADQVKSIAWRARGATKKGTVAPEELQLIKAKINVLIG

[15] = target: T4, Endoribonuclease toxin MazF; experiment: substrate-only fluorescence increase artefacts – biochemical, single-stranded RNase substrate, counter-screen for MazEF activator project, dose response (AID 588502); format: functional

With `Cc1nc(-c2ccccc2)sc1-c1nc(-c2ccccc2)ncc1S(=O)(=O)c1ccccc1` the EC50 [1] was 38.2 µM (not active), the EC50 [2] was 61.8 µM (not active) and the EC50 [3] was > 26.5 µM (inactive).

In the case of `Cc1nn(Cc2c(Cl)cccc2Cl)c(C)c1NC(=O)CCCn1nc([N+](=O)[O-])c(Cl)c1C`, the IC50 (Phospholipase A2) is reported as 9.06 µM (active) and the IC50 (Cysteine protease ATG4B) is reported as 9.88 µM (active).

For `CCCN(Cc1cc2cc(C)ccc2[nH]c1=O)C(=O)c1ccccn1`, the EC50 [4] was > 32 µM (inactive), the EC50 [5] was > 10 µM (inactive) and the IC50 [6] was > 32 µM (inactive). The EC50 [7] was > 32 µM (inactive), the IC50 (Mu-type opioid receptor [8]) was > 32 µM (inactive) and the IC50 [9] was > 32 µM (inactive). For the same compound, the EC50 (Mu-type opioid receptor [10]) was > 32 µM (inactive).

With `CC(=O)NNc1ncnc2c1cnn2-c1ccc(C)cc1` the IC50 [11] was > 100 µM (inactive).

For `CN(C)c1ccc(C(=O)OCC(=O)N2CCCC2)cc1`, the AC50 [12] was 10.6 µM (active).

With `O=[N+]([O-])c1ccc(N2CCCC2)c2ncccc12` the CC50 [13] was > 50 µM (active), the EC50 (Troponin, cardiac muscle) was 12.1 µM (inactive) and the EC50 [14] was > 99 µM (inactive). The EC50 [15] was > 99 µM (inactive).

For `CC(Sc1nc2c(cc1C#N)CCCCC2)C(=O)O` (centres undefined), the AC50 [12] was > 60 µM (inactive).
